Source: patent US20230271965A1, “BICYCLIC HETEROARENES AND METHODS OF THEIR USE” (Kineta, Inc., priority 2020, published 2023)
Where two headings read alike, the source gives them in different places.

Columns and labels:
[1] = target: T1, full-length human PIKFYVE (GST-PIKFYVE) (Homo sapiens, UniProt Q9Y2I7, L932S/Q1183K/Q995L/S1033A/S696N/T998S); assay: PIKfyve biochemical assay (ADP-Glo Kinase assay, Carna Biosciences)
T1 construct: A full-length human PIKFYVE [1-2098 (end) amino acids; purchased Carna Biosciences; host or cells: baculovirus expression system
Procedure: PIKfyve Biochemical Assay. The biochemical PIKFyve inhibition assays were run by Carna Biosciences according to proprietary methodology based on the Promega ADP-Glo™ Kinase assay. […] GST-PIKFYVE was purified by using glutathione sepharose chromatography and used in an ADP-Glo™ Kinase assay (Promega). Reactions were set up by adding the test compound solution, substrate solution, ATP solution and kinase solution, each at 4×final concentrations. Reactions were prepared with assay buffer (50 mM MOPS, 1 mM DTT, pH7.2), mixed, and incubated in black 384 well polystyrene plates for 1 hour at room temperature. ADP-Glo™ reagent was then added for 40 minutes, followed by kinase detection reagent for an additional 40 minutes. The kinase activity was evaluated by detecting relative light units on a luminescence plate reader. Samples were run in duplicate from 10 μM to 3 nM. […] IC50 values were calculated from concentration vs % inhibition curves by fitting to a four-parameter logistic curve.
The biochemical PIKFyve inhibition assays were run by Carna Biosciences according to proprietary methodology based on the Promega ADP-Glo™ Kinase assay. […] GST-PIKFYVE was purified by using glutathione sepharose chromatography and used in an ADP-Glo™ Kinase assay (Promega).
Reactions were set up by adding the test compound solution, substrate solution, ATP solution and kinase solution, each at 4×final concentrations. Reactions were prepared with assay buffer (50 mM MOPS, 1 mM DTT, pH7.2), mixed, and incubated in black 384 well polystyrene plates for 1 hour at room temperature. ADP-Glo™ reagent was then added for 40 minutes, followed by kinase detection reagent for an additional 40 minutes. The kinase activity was evaluated by detecting relative light units on a luminescence plate reader. Samples were run in duplicate from 10 uM to 3 nM. […] IC50 values were calculated from concentration vs % inhibition curves by fitting to a four-parameter logistic curve.

[2] = system: PIKFYVE TDP-43 yeast strain; assay: Propidium iodide viability assay, PIKFYVE TDP-43 yeast strain; format: cell-based; details: Saccharomyces cerevisiae; reduction in PI-positive cells, 24 hours, values plotted in FIG. 7
From the text: Generation of TDP-43 yeast model expressing human PIKfyve. Human PIKFYVE (“entry clone”) was cloned into pAG416GPDccdB (“destination vector”) according to standard Gateway cloning protocols (Invitrogen, Life Technologies). The resulting pAG416GPD-PIKFYVE plasmids were amplified in E. coli and plasmid identity confirmed by restriction digest and Sanger sequencing. Lithium acetate/polyethylene glycol-based transformation was used to introduce the above PIKFYVE plasmid into a BY4741 yeast strain auxotrophic for the ura3 gene and deleted for two transcription factors that regulate the xenobiotic efflux pumps, a major efflux pump, and FAB1, the yeast ortholog of PIKFYVE (MATa, snq2::KILeu2; pdr3::KIura3; pdr1::NATMX; fab1::G418^R, his3; leu2; ura3; met15; LYS2+) (FIG. 2).
Transformed yeast were plated on solid agar plates with complete synthetic media lacking uracil (CSM-ura) and containing 2% glucose. Individual colonies harboring the control or PIKFYVE TDP-43 plasmids were recovered. A plasmid containing wild-type TDP-43 under the transcriptional control of the GAL1 promoter and containing the hygromycin-resistance gene as a selectable marker was transformed into the fab1::G418^R pAG416GPD-PIKFYVE yeast strain (FIG. 1). Transformed yeast were plated on CSM-ura containing 2% glucose and […] after overnight recovery in media lacking antibiotic. Multiple independent isolates were further evaluated for cytotoxicity and TDP-43 expression levels.
Viability Assay. A control yeast strain with the wild-type yeast FAB1 gene and TDP-43 (“FAB1 TDP-43”, carries empty pAG416 plasmid), and the “PIKFYVE TDP-43” yeast strain, were assessed for toxicity using a propidium iodide viability assay. Both yeast strains were transferred from solid CSM-ura/2% glucose agar plates into 3 mL of liquid CSM-ura/2% glucose media for 6-8 hours at 30° C. with aeration. Yeast cultures were then diluted to an optical density at 600 nm wavelength (OD600) of 0.005 in 3 mL of CSM-ura/2% raffinose and grown overnight at 30° C. with aeration to an OD600 of 0.3-0.8. Log-phase overnight cultures were diluted to OD600 of 0.005 in CSM-ura containing either 2% raffinose or galactose and 150 μL dispensed into each well of a flat bottom 96-well plates. Compounds formulated in 100% dimethyl sulfoxide (DMSO) were serially diluted in DMSO and 1.5 μL diluted compound transferred to the 96-well plates using a multichannel pipet. Wells containing DMSO alone were also evaluated as controls for compound effects. Tested concentrations ranged from 15 μM to […]. Cultures were immediately mixed to ensure compound distribution and covered plates incubated at 30° C. for 24 hours in a stationary, humified incubator.
Upon the completion of incubation, cultures were assayed for viability using propidium iodide (PI) to stain for dead/dying cells. A working solution of PI was made where, for each plate, 1 μL of 10 mM PI was added to 10 mL of CSM-ura (raffinose or galactose). The final PI solution (50 μL/well) was dispensed into each well of a new round bottom 96-well plate. The overnight 96-well assay plate was then mixed with a multichannel pipet and 50 μL transferred to the PI-containing plate. This plate was then incubated for 30 minutes at 30° C. in the dark. A benchtop flow cytometer (Miltenyi MACSquant) was then used to assess red fluorescence ([…]), forward scatter, and side scatter (with following settings: gentle mix, high flow rate, fast measurement, 10,000 events). Intensity histograms were then gated for “PI-positive” or “PI-negative” using the raffinose and galactose cultures treated with DMSO as controls. The DMSO controls for raffinose or galactose-containing cultures were used to determine the window of increased cell death and this difference set to 100. All compounds were similarly gated and then compared to this maximal window to establish the percent reduction in PI-positive cells.

[3] = target: T2, PIKfyve (PIKFYVE-NanoLuc fusion in HEK293 cells) (Homo sapiens, UniProt Q9Y2I7); assay: NanoBRET TE Intracellular Kinase Assay, K-8 (Promega) cell-based assay; details: 2 hours, read-out: hPIKfyve BRET IC50
T2 construct: containing a full-length PIKfyve according to manufacturer's specifications; host or cells: HEK293
Procedure: NanoBRET™ TE Intracellular Kinase Assay, K-8 (Promega) Cell-Based Assay. Intracellular inhibition of PIKfyve was assayed using Promega's NanoBRET™ TE Intracellular Kinase Assay, K-8 according to manufacturer's instructions. A dilution series of test compounds was added for 2 hours to HEK293 cells transfected for a minimum of 20 hours with PIKFYVE-NanoLuc® Fusion Vector (Promega) containing a full-length PIKfyve according to manufacturer's specifications in a 96-well plate. Kinase activity was detected by addition of a NanoBRET™ tracer reagent, which was a proprietary PIKfyve inhibitor appended to a fluorescent probe (BRET, bioluminescence resonance energy transfer). Test compounds were tested at concentrations of 10, 3, 1, 0.3, 0.1, 0.03, 0.01, 0.003 μM. BRET signals were measured by a GloMax® Discover Multimode Microplate Reader (Promega) using 0.3 sec/well integration time, 450BP donor filter and 600LP acceptor filters. Active test compounds that bound PIKfyve and displaced the tracer reduced BRET signal. IC50 values were then calculated by fitting the data to the normalized BRET ratio.

[4] = values plotted in FIG. 7, read-out: PIKFYVE Biochemistry (IC50)
[5] = ADP-Glo, full-length human PIKFYVE, read-out: hPIKfyve IC50
[6] = ADP-Glo with full-length PIKfyve, read-out: PIKfyve IC50

T1 sequence (Q9Y2I7 whole entry S696N/L932S/Q995L/T998S/S1033A/Q1183K): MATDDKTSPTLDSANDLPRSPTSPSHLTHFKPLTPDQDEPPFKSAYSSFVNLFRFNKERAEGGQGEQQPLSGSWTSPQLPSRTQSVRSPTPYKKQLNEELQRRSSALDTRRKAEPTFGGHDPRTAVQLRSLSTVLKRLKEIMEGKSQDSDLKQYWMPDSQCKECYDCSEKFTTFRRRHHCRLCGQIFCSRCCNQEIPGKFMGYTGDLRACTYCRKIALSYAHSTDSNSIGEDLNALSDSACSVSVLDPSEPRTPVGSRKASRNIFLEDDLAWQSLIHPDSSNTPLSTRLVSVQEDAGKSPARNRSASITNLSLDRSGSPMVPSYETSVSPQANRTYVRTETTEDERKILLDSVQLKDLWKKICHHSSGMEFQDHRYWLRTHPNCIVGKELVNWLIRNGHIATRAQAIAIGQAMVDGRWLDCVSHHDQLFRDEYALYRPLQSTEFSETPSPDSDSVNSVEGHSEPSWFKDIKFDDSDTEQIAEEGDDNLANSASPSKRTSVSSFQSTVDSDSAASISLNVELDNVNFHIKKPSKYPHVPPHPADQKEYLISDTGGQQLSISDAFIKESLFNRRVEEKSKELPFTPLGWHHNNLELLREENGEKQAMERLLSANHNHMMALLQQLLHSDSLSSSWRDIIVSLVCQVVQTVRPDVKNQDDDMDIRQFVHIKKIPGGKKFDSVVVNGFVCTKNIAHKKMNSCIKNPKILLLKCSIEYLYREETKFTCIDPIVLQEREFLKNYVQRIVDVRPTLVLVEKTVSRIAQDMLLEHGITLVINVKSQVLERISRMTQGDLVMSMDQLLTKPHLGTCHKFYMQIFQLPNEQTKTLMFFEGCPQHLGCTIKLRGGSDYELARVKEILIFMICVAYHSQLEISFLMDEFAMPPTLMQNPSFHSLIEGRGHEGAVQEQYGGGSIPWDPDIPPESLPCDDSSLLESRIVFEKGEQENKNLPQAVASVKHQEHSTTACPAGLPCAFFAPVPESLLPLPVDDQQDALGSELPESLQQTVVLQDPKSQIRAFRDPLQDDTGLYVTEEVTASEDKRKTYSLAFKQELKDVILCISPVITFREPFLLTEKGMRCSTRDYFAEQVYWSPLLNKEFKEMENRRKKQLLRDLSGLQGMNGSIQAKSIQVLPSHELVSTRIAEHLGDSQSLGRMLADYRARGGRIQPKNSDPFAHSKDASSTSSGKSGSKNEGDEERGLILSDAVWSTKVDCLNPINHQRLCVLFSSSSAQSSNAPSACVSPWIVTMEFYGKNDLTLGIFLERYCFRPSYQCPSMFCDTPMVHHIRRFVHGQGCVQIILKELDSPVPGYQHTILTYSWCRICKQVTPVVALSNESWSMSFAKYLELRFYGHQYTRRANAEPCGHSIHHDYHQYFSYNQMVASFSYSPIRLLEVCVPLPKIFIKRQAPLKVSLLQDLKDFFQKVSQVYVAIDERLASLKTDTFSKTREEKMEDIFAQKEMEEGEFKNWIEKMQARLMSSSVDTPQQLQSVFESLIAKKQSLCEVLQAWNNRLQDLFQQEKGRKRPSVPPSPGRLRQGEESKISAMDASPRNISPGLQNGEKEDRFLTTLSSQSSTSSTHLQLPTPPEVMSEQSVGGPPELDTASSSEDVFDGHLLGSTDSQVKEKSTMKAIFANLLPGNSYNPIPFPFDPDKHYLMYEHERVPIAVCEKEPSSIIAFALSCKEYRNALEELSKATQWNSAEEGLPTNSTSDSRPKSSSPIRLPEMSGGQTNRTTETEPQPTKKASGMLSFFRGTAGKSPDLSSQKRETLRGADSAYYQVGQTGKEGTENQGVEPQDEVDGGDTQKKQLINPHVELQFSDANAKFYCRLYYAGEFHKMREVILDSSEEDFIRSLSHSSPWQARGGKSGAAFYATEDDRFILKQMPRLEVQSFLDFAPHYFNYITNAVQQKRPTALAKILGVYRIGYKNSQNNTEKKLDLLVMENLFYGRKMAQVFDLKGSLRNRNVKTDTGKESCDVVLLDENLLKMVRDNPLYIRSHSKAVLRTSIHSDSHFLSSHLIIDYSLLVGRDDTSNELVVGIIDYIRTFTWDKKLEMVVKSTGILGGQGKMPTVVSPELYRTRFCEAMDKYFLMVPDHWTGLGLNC
T2 sequence (Q9Y2I7 whole entry, the tested form may be a part): as the sequence (Q9Y2I7 whole entry S696N/L932S/Q995L/T998S/S1033A/Q1183K) above, with N696S, S932L, L995Q, S998T, A1033S, K1183Q counted along it

Cc1cccc(/C=N/Nc2nc(N3CCOCC3)c3nc(-c4ccncc4)n(C)c3n2)c1 [drawing 266]
IC50 [1, 4]: 0.005 µM
IC50 [2]: 4.72 µM

c1ccc(-c2nc(-c3cc(N4CCOCC4)nc(OCc4ccncc4)n3)no2)cc1
IC50 [2]: > 15 µM

Oc1cc(C2CCOCC2)nn1-c1cc(N2CCOCC2)n2nc(-c3ccncc3)cc2n1
IC50 [1, 4]: 0.253 µM
IC50 [2]: 9.11 µM

c1ccc(Cc2ncccc2-c2cc(N3CCOCC3)n3nc(-c4ccncc4)cc3n2)cc1
IC50 [1, 4]: 1.09 µM
IC50 [2]: > 15 µM

CN1CCCC(COc2nc(N3CCOCC3)nc3c2CCN3c2ccccc2)C1 (stereo not shown) [Compound 7]
IC50 [1, 5]: 1 to 10 µM

c1cncc(N2CCc3c(COC4CCNC4)nc(N4CCOCC4)nc32)c1 (stereo not shown) [Compound 13, 4-(7-(pyridin-3-yl)-4-((pyrrolidin-3-yloxy)methyl)-5,6-dihydro-5H-pyrrolo[2,3-d]pyrimidin-2-yl)morpholine]
IC50 [1, 5]: 0.1 to 1 µM

Cn1c(-c2ccncc2)nc2c(N3CCOCC3)ncnc21 [drawing 253]
IC50 [1, 6]: 0.64 µM

c1ccc(C2CN(c3cc(N4CCOCC4)n4nc(-c5ccncc5)cc4n3)CCN2)cc1 (stereo not shown)
IC50 [1, 4]: 2.66 µM
IC50 [2]: > 15 µM

O=c1ccn(Cc2nc(N3CCOCC3)cc(-n3nccc3-c3ccccc3)n2)cc1
IC50 [2]: > 15 µM

O=c1c(CCOc2cccnc2)cc2ncncc2n1-c1ccccc1
IC50 [2]: > 15 µM

c1ccc(N2CCc3c(OCCc4ccccn4)nc(N4CCOCC4)nc32)cc1 [Compound 1, 4-(7-phenyl-4-(2-(pyridin-2-yl)ethoxy)-6,7-dihydro-5H-pyrrolo[2,3-d]pyrimidin-2-yl)morpholine]
IC50 [3]: 0.01 to 0.1 µM

c1ccc(N2CCc3c(NC4COC4)nc(N4CCOCC4)nc32)cc1 [Compound 48, 2-morpholino-N-(oxetan-3-yl)-7-phenyl-6,7-dihydro-5H-pyrrolo[2,3-d]pyrimidin-4-amine]
IC50 [1, 5]: 1 to 10 µM

c1cc(-c2nc3nc(N4CCOCC4)cc(N4CCOCC4)n3n2)ccn1
IC50 [1, 4]: 9.2 µM
IC50 [2]: > 15 µM

c1ccc(-c2ccnn2-c2cc(N3CCOCC3)n3nc(-c4ccncc4)nc3n2)cc1
IC50 [1, 4]: 0.767 µM
IC50 [2]: > 15 µM

c1cncc(-c2nc(N3CCOCC3)nc3c2CCN3c2ccc3c(c2)OCCO3)c1 [Compound 64, 4-(7-(2,3-dihydrobenzo[b][1,4]dioxin-6-yl)-4-(pyridin-3-yl)-6,7-dihydro-5H-pyrrolo[2,3-d]pyrimidin-2-yl)morpholine]
IC50 [1, 5]: 0.01 to 0.1 µM

c1ccc(-c2cccc(-c3cc(N4CCOCC4)n4nc(-c5ccncc5)cc4n3)n2)cc1
IC50 [1, 4]: 0.014 µM
IC50 [2]: 0.23 µM

O=c1ccc(-c2ccccc2)nn1-c1cc(N2CCOCC2)n2nc(-c3ccncc3)cc2n1
IC50 [1, 4]: 0.295 µM
IC50 [2]: > 15 µM

c1cc(COc2nc(N3CCOCC3)cc(-n3cc4c(n3)COCC4)n2)ccn1
IC50 [1, 4]: 1.34 µM
IC50 [2]: > 15 µM

c1ccc(N2CCc3c(OCC4CCCO4)nc(N4CCOCC4)nc32)cc1 (stereo not shown) [Compound 8]
IC50 [1, 5]: 0.01 to 0.1 µM

Cn1c(-c2ccncc2)nc2c(N3CCOCC3)ncnc21 [drawing 265]
IC50 [1, 4]: 0.64 µM
IC50 [2]: > 15 µM

c1cc(-c2cc3nc(C4CNC4)cc(N4CCOCC4)n3n2)ccn1
IC50 [1, 4]: 8.02 µM
IC50 [2]: > 15 µM

c1ccc(N2CCc3c(OCc4ccncc4)nc(N4CCOCC4)nc32)cc1 [Compound 4]
IC50 [1, 5]: 0.01 to 0.1 µM

Cc1cccc(/C=N/Nc2cc(N3CCOCC3)nc(OCCc3ccc(CN)cc3)n2)c1
IC50 [1, 4]: 0.007 µM
IC50 [2]: 1.12 µM

CC(C)(C)OC(=O)N1CCC(OCc2nc(N3CCOCC3)nc3c2CCN3c2cccnc2)C1 (stereo not shown) [Compound 15, tert-butyl 3-((2-morpholino-7-(pyridin-3-yl)-6,7-dihydro-5H-pyrrolo[2,3-d]pyrimidin-4-yl)methoxy)pyrrolidine-1-carboxylate]
IC50 [1, 5]: 1 to 10 µM

Cc1cccc(/C=N/Nc2nc(N3CCOCC3)c3nc(-c4ccncc4)n(C)c3n2)c1 [drawing 252]
IC50 [1, 6]: 0.0049 µM

COc1nc(N2CCOCC2)nc2c1CCN2c1ccccc1 [drawing 274]
IC50 [1, 4]: 0.085 µM
IC50 [2]: 4.27 µM

Fc1cccc(-c2ccnn2-c2nc(N3CCOCC3)c3ncccc3n2)c1
IC50 [2]: 5.75 µM

Cc1cccc(/C=N/Nc2cc(N3CC4CC3CO4)n3nc(-c4ccncc4)cc3n2)c1 (stereo not shown)
IC50 [1, 6]: 0.012 µM

Cc1cccc(/C=N/Nc2nc(N3CCOCC3)c3ncccc3n2)c1
IC50 [1, 4]: 0.018 µM
IC50 [2]: 8.21 µM

c1ccc(N2CCc3c(OCc4cccnc4)nc(N4CCOCC4)nc32)cc1 [drawing 275]
IC50 [1, 4]: 0.042 µM
IC50 [2]: 2.69 µM

c1ccc(-c2ccnc(-c3cc(N4CCOCC4)nc(OCc4ccncc4)n3)n2)cc1
IC50 [1, 4]: 0.032 µM
IC50 [2]: 1.45 µM

CN(C)c1cc(N2CCOCC2)n2nc(-c3ccncc3)cc2n1
IC50 [1, 6]: 2.01 µM

c1ccc(N2CCc3c(Cc4ccccn4)nc(N4CCOCC4)nc32)cc1 [Compound 37, 4-(7-phenyl-4-(pyridin-2-ylmethyl)-6,7-dihydro-5H-pyrrolo[2,3-d]pyrimidin-2-yl)morpholine]
IC50 [1, 5]: 0.01 to 0.1 µM

Oc1cc(-c2ccccc2)nn1-c1cc(N2CCOCC2)n2nc(-c3ccncc3)nc2n1
IC50 [1, 4]: 0.018 µM
IC50 [2]: 0.693 µM

c1ccc(Cc2nc(N3CCOCC3)nc3c2CCN3c2cccnc2)nc1 [Compound 38]
IC50 [1, 5]: 0.1 to 1 µM
